Measured values: PMC12756739 (ACS Omega, 2025)

Key:
MCF-7 cell line [1] = assay: Flow cytometric apoptosis/necrosis analysis; format: cell-based; settings: at the IC50 concentration
NIH3T3 cells = assay: MTT cytotoxicity test, NIH3T3 cell line; format: cell-based; settings: Mus musculus, NIH3T3, read-out: IC50 (μM) NIH3T3
COX-2 enzyme = target: T1, COX-2 enzyme (Homo sapiens, UniProt P35354); assay: biochemical
T1 sequence (P35354 18-604): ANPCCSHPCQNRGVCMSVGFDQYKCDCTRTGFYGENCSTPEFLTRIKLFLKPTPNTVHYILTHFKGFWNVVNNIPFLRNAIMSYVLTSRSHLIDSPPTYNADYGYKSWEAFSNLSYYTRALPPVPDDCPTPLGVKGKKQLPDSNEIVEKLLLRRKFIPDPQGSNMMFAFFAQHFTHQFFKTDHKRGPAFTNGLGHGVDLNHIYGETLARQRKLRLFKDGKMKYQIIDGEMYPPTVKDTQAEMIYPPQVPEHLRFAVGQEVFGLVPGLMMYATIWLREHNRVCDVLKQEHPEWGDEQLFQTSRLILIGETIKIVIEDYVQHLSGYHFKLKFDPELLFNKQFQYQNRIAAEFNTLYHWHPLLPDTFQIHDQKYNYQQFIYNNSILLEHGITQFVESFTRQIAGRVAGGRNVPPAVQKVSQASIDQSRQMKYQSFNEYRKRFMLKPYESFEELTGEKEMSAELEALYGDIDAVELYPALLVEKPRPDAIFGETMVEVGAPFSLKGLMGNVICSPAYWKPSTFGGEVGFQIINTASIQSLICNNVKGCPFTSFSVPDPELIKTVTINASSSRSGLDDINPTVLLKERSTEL

MCF-7 cell line [2] = assay: MTT cytotoxicity test, MCF-7 cell line; format: cell-based; settings: Homo sapiens, MCF7, read-out: IC50 (μM) MCF-7
A549 cell line = assay: MTT cytotoxicity test, A549 cell line; format: cell-based; settings: Homo sapiens, A549, read-out: IC50 (μM) A549
EGFR enzyme = EGFR enzyme (Homo sapiens, UniProt P00533); assay: EGFR kinase inhibition assay; format: biochemical
EGFR enzyme, sequence (P00533 25-1210): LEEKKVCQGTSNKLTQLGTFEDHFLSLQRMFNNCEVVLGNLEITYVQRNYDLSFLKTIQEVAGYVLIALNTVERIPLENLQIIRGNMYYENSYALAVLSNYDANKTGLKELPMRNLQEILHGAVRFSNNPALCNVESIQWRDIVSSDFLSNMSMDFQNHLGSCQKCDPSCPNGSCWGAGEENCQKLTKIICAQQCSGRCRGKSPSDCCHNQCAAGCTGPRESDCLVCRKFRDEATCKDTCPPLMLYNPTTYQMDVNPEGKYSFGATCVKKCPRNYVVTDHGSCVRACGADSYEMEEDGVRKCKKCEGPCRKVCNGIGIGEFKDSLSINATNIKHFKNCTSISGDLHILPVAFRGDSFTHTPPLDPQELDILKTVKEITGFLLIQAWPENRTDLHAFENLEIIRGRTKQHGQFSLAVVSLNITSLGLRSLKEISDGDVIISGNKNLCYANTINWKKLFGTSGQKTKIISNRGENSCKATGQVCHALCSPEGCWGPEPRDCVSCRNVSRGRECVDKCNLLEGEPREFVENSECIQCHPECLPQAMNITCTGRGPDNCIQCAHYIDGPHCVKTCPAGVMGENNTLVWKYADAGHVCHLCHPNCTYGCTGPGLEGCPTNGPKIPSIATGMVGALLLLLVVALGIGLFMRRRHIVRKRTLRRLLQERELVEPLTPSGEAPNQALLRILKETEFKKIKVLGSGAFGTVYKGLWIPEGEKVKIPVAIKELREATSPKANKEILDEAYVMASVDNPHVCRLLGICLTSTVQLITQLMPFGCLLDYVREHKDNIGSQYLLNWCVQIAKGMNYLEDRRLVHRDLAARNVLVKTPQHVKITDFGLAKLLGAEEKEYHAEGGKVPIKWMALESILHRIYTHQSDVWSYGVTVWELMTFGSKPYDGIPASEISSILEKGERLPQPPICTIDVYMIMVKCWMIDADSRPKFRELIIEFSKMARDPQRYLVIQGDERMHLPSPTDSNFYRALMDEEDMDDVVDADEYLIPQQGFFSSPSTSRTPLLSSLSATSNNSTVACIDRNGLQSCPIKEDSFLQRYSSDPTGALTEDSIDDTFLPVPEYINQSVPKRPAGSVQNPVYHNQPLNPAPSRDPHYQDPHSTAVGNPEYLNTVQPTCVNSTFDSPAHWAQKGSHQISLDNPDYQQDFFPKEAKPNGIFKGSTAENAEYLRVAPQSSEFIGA

EGFR^WT = settings: ref Fadaly et al.; cited from earlier work
EGFR^L858R/T790M = settings: ref Fadaly et al.; cited from earlier work
COX-2 = settings: ref Fadaly et al.; cited from earlier work

SMILES | % early apoptosis (MCF-7 cell line [1]; lower right quadrant) [%] | % necrosis (MCF-7 cell line [1]; upper left quadrant) [%] | % late apoptosis (MCF-7 cell line [1]; upper right quadrant) [%] | IC50 (NIH3T3 cells) [µM] | IC50 (COX-2 enzyme) [nM] | IC50 (MCF-7 cell line [2]) [µM] | IC50 (A549 cell line) [µM] | IC50 (EGFR enzyme) [nM] | activity against EGFR^WT (EGFR^WT) [µM] | activity against EGFR^L858R/T790M (EGFR^L858R/T790M) [µM] | activity against COX-2 (COX-2) [µM]
NS(=O)(=O)c1ccc(NC(=O)CSc2nnc(NC(=O)c3ccc(Cl)cc3)s2)cc1 [3j, 4-Chloro-N-(5-((2-oxo-2-((4-sulfamoylphenyl)amino)ethyl)thio)-1,3,4-thiadiazol-2-yl)benzamide] | 20.20 | 4.08 | 15.56 | 85.6 ± 3.16 | 192 ± 8 | 2.38 ± 0.108 | 20.7 ± 0.984 | 20 ± 0.8 |  |  | 
CS(=O)(=O)c1ccc(-n2cc(/C=N/c3ccc(NC(=O)CO[N+](=O)[O-])cc3)c(-c3ccc(Br)cc3)n2)cc1 [(E)-2-((4-(((3-(4-bromophenyl)-1-(4-(methylsulfonyl)phenyl)-1H-pyrazol-4-yl)methylene)amino)phenyl)amino)-2-oxoethyl nitrate] |  |  |  |  |  |  |  |  | 0.452 | 0.031 | 0.437
